Experimental data reported in patent publication US20210177806A1, “COMBINATION PHARMACEUTICAL, PROPHYLACTIC OR SUPPRESSIVE AGENT FOR DEVELOPMENT OF RESISTANCE TO PYRIMIDINE ANTIMETABOLITE, AND METHOD OF TREATING DISEASE” (FUJIFILM Corporation, priority 2018, published 2021).
“Also recorded” adds a separate entry of the source.

What was measured:
[1] = system: azacitidine-resistant leukemia cell lines; details: cited from earlier work
SKM-1 leukemia cell line = test: Cell proliferation assay for azacitidine after long-term culture (development of resistance); assay type: cell-based; details: for sensitivity to azacitidine (dose-response curve) / development of resistance: Aza group: SKM-1 treated 4 months with azacitidine only, 50 nmol/L to 1.6 mol/L
Protocol: SKM-1 (National Institute of Biomedical Innovation, Health and Nutrition) was used as leukemia cell line. Cells were cultured in RPMI 1640 medium (Life Technologies) containing 1% penicillin/streptomycin and 10% fetal bovine serum (FBS) in an environment of 37° C., 5% CO2 and saturated water vapor.
The respective cultures were subjected to long-term culture. The concentration of azacitidine was 50 nmol/L at the start and was doubled at 2-4 week intervals. When cultured for 2 weeks after the azacitidine concentration had reached […], the treated groups were subjected to an assay for cell proliferation for azacitidine.
In the cell proliferation assay, cells were first suspended in a medium so that the number of cells was 111,111 cells/mL, and 90 μL (10,000 cells) each of the resultant was seeded in a 96-well plate (Corning Incorporated) per well. Next, 10 μL of a PBS solution of azacitidine (0, 3, 10, 30, 100 or 300 μmon) was added to the plate, and the cells were cultured in an environment of 37° C., 5% CO2 and saturated water vapor for 72 hours.
The relative number of the cancer cells after the above incubation was measured in terms of emission intensity using Cell Titer Glo (Promega Corporation) reagent by a plate reader (Envision, PerkinElmer Inc.). With the number of cells at a concentration of azacitidine of 0 μmol/L as 100% and the emission intensity of the sample to which no cells were added as 0%, the relative value of emission intensity was calculated at each azacitidine concentration. The results of each group were plotted with the azacitidine concentration (mon) on the horizontal axis and the emission intensity (relative value) on the vertical axis.
Aza: SKM-1 cells treated for 4 months with gradual increase in the concentration of azacitidine (50 nmol/L to […]) Aza+A1: SKM-1 cells which were treated in the same manner as in the Aza group and to which Compound A was added at 1 μmon throughout the period of treatment. Aza+A10: SKM-1 cells which were treated in the same manner as in the Aza group and to which Compound A was added at 1 μmon throughout the period of treatment

MDS patients [2] = test: Administration to MDS patients (Examples 2 to 5); assay type: in vivo; details: for effect on the development of resistance to pyrimidine antimetabolite: 28-day cycle
Protocol: (§1) Compound A is administered to MDS patients (over 18 years of age) at a dose per one time of 400 mg/m^2 twice a day for 14 days. Administration of azacitidine is started on the day when the administration of Compound A is started. Azacitidine is administered subcutaneously or intravenously at a dose of 75 mg/m^2 for 7 days. The treatment cycle consists of 28 days. After the administration for 7 days, the administration is discontinued for 21 days.
as §1, with “21” for “14”, “days.” for “days. Administration of azacitidine is started on the day when the administration of Compound A is started.”
as §1, with “time of 300 mg/m^2 twice” for “time of 400 mg/m^2 twice”, “21 days. […] The day of the start of administration of Compound A may be earlier than the day of the start of administration of azacitidine. Furthermore, Compound A may be administered twice a day for 21 days as in Example 3.” for “21 days.”
as §1, with “time of 200 mg/m^2 twice” for “time of 400 mg/m^2 twice”, “21 days. […] The day of the start of administration of Compound A may be earlier than the day of the start of administration of azacitidine. Furthermore, Compound A may be administered twice a day for 21 days as in Example 3.” for “21 days.”
For the MDS patients in Examples 2 to 5, the therapeutic effect is evaluated for the following items in comparison with the outcome of an azacitidine single agent+BSC (Best Supportive Care: Support therapy, transfusion, administration of antibiotics, analgesics, antipyretics, antiemetics, etc. as required) (International Phase III Test “Aza-001”). The period for which the development of resistance to pyrimidine antimetabolite is prevented or suppressed in the above patients is preferably 3 months or more, preferably 4 months or more, preferably 5 months or more, preferably 6 months or more, and preferably 1 year or more.

[3] = system: intracellular CTP (cytidine triphosphate) in leukemia cells (SKM-1); test: Amount of intracellular CTP in leukemia cells after 4-month exposure; assay type: cell-based
Protocol: Intracellular CTP (cytidine triphosphate) competes with Aza-CTP (an active metabolite of Aza) and an increased amount of CTP may reduce sensitivity to Aza. […] Then, studies were conducted on the assumption that exposure to Compound A or a salt thereof or a hydrate thereof and Aza for a long time is effective for the recovery or retainment of sensitivity to Aza with the expectation that Compound A or a salt thereof or a hydrate thereof has an inhibitory effect on CTP increase.
The result is that a long-term (4 months) exposure of leukemia cells to a combination of Aza and Compound A.¾ hydrate caused a change in Aza sensitivity. […] Thus, treating an untreated MDS patient with a combination of Aza and Compound A or a salt thereof or a hydrate thereof is considered to be effective for maintaining their sensitivity to Aza.

MDS patients [4] = details: AZA-001 test, cited from earlier work

## NC(=O)c1nc[nH]c1O [Compound A, 5-Hydroxy-1H-imidazole-4-carboxamide]
[1]
  cell growth inhibitory activity / cross resistance: cell growth inhibitory activity without cross resistance
SKM-1 leukemia cell line; 4-month exposure of naive SKM-1 to Aza and Compound A (1 mon or 10 μmon)
  effect on the development of resistance to Aza: prophylactic or suppressive effect; also recorded: almost complete elimination of the development of resistance to Aza
SKM-1 leukemia cell line; Aza+A1 group: treated as Aza group plus Compound A at 1 μmon throughout
  sensitivity to azacitidine (dose-response curve): almost the same as that of the control group
SKM-1 leukemia cell line; Aza+A10 group: treated as Aza group plus Compound A at 10 mon throughout
  sensitivity to azacitidine (dose-response curve): almost the same as that of the control group
MDS patients [2]; Example 2: Compound A 400 mg/m^2 twice a day for 14 days with azacitidine 75 mg/m^2 for 7 days
  effect on the development of resistance to pyrimidine antimetabolite: prophylactic or suppressive effect
MDS patients [2]; Example 3: Compound A 400 mg/m^2 twice a day for 21 days with azacitidine 75 mg/m^2 for 7 days
  effect on the development of resistance to pyrimidine antimetabolite: prophylactic or suppressive effect
MDS patients [2]; Example 4: Compound A 300 mg/m^2 twice a day for 14 days with azacitidine
  side effects in patients: side effects in patients can be reduced
MDS patients [2]; Example 4: Compound A 300 mg/m^2 twice a day for 14 days with azacitidine 75 mg/m^2 for 7 days
  effect on the development of resistance to pyrimidine antimetabolite: prophylactic or suppressive effect
MDS patients [2]; Example 5: Compound A 200 mg/m^2 twice a day for 14 days with azacitidine
  side effects in patients: side effects in patients can be reduced
MDS patients [2]; Example 5: Compound A 200 mg/m^2 twice a day for 14 days with azacitidine 75 mg/m^2 for 7 days
  effect on the development of resistance to pyrimidine antimetabolite: prophylactic or suppressive effect
[3]; Aza and Compound A combined from the start of the treatment
  amount of intracellular CTP: kept at a level similar to that in untreated cells

## Nc1ncn([C@@H]2O[C@H](CO)[C@@H](O)[C@H]2O)c(=O)n1 [azacitidine, 4-amino-1-β-D-ribofuranosyl-1,3,5-triazin-2(1H)-one]
MDS patients [4]
  2-year survival rate: 50.8%
  Hematologic response rate according to IWG criteria (2000 edition): 6.7%
  Hematological improvement according to IWG criteria (2000 edition): 49.2%
  Median time of AML transformation: 20.7 months
  Median time of AML transformation or death: 13.0 months
  Survival (median): 24.5 months
MDS patients [4]; no platelet transfusions for consecutive 56 days or more
  patients who achieved platelet transfusion-independence from dependence: 42.1%
MDS patients [4]; no red blood cell transfusions for consecutive 56 days or more
  patients who achieved red blood cell transfusion-independence from dependence: 45.0%
SKM-1 leukemia cell line
  sensitivity to azacitidine (dose-response curve) / development of resistance: the dose-response curve shifted to the right
SKM-1 leukemia cell line; listed as Aza
  sensitivity to azacitidine (dose-response curve) / development of resistance: resulting in the development of resistance
SKM-1 leukemia cell line; SKM-1, all groups, azacitidine 72 hours, Cell Titer Glo
  emission intensity (relative value) / number of viable cells: decreased azacitidine concentration-dependently
[3]; 4-month exposure to only Aza
  amount of intracellular CTP: an increase in the amount of intracellular CTP
